We go through 2 molecules from patent US8318781B2, “G-protein-conjugated receptor agonist” (Japan Science and Technology Agency, priority 2007, dated 2012).

Each structure is given as a SMILES string.

Assay [1] concerns the target T1, human GPR40 (hGPR40) (Homo sapiens, UniProt O14842).
T1 construct: expressed in transfected cells; doxycycline-inducible expression vector
The assay can be described thus: ERK assay, screening for GPR40 ligands in cell line TXGPR40. The format is cell-based. The note with it: TXGPR40 cells, class relative to LA; for ERK/GPR40 100 μM: ligand 100 μM.

Assay [2] addresses T1, human GPR40 (hGPR40). The assay can be described thus: Determination of intracellular Ca2+ concentration (FLIPR), cell line TXGPR40. It counts as cell-based. The note with it: for EC50 / [Ca^2+]/GPR40 10 μM (ratio vs. LA): TXGPR40 cells; for EC50: maximum fluorescence intensity vs ligand concentration, read-out: [Ca^2+]/GPR40 pEC50 (converted); for agonistic activity for GPR40 (in words): cells in which GPR40 has been transgenically expressed; for [Ca^2+]/GPR40 10 μM (ratio vs. LA): relative fluorescence intensity vs LA at 10 μM.

T1 sequence (O14842 whole entry): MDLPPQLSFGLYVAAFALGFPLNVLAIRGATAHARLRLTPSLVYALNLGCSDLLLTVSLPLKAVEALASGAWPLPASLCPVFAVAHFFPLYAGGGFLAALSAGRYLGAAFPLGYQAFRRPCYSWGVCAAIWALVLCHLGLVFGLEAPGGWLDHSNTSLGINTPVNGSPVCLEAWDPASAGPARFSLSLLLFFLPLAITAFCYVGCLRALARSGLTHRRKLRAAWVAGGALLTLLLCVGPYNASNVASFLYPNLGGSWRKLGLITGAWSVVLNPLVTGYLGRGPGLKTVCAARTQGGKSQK

In the case of `CN(C)c1ccc(N(CCOc2ccc(CCCC(=O)O)cc2)c2ccccn2)cc1` [NCG54], in assay [1] (ligand 10 μM), the “ERK/GPR40 10 μM” value is recorded as “+ (+ denotes 0 to 100% of LA)”. Besides, the “ERK/GPR40 100 μM” value in assay [1] is recorded as “++ (++ denotes 50 to 100% of LA)”. In assay [2], the EC50 was 24 µM, the “agonistic activity for GPR40 (in words)” value is recorded as “showed a specific reactivity” and the “[Ca^2+]/GPR40 10 μM (ratio vs. LA)” value is 0.07.
As for `O=C(O)CCCc1ccc(OCCN(c2ccccc2)c2nccs2)cc1` [NCG46], the “ERK/GPR40 100 μM” value in assay [1] is listed as “++ (++ denotes 50 to 100% of LA)”. Moreover, in assay [2], the EC50 is 21.4 µM, the “agonistic activity for GPR40 (in words)” value is given as “showed a specific reactivity” and the “[Ca^2+]/GPR40 10 μM (ratio vs. LA)” value came out at 0.30.
